Measurements published in ChEMBL document CHEMBL5614389, “Design, synthesis, and biological evaluation of RSL3-based GPX4 degraders with hydrophobic tags” (Eur J Med Chem, 2024).
Active and inactive are the calls of the source. No cut-off for these calls is given here.

Tests used:
HT-1080 [1] = assay: Antiproliferative activity against human HT-1080 cells assessed as inhibition of cell growth incubated for 72 hrs by MTT assay; assay type: functional, cell-based; conditions: HT-1080, 72 h
HT-1080 [2] = assay: HyT activity at GPX4/E3 ligase in human HT-1080 cells assessed as degradation of GPX4 protein at 0.2 uM incubated for 24 hrs by Western blotting analysis relative to control; assay type: cell-based
HT-1080 [3] = assay: HyT activity at GPX4/E3 ligase in human HT-1080 cells assessed as degradation of GPX4 protein at 0.05 uM incubated for 24 hrs by Western blotting analysis relative to control; assay type: cell-based
MDA-MB-231 [4] = assay: Antiproliferative activity against human MDA-MB-231 cells assessed as inhibition of cell growth incubated for 72 hrs by MTT assay; assay type: functional, cell-based; conditions: MDA-MB-231, 72 h
HT-1080 [5] = assay: Induction of ferroptosis in human HT-1080 cells assessed as increase in lipid peroxidation at 0.2 to 0.5 uM incubated for 4 hrs by C11 BODIPY 581/591 dye based flow cytometry; assay type: functional, cell-based; conditions: dose 0.2-0.5 µM
HT-1080 [6] = assay: Induction of ferroptosis in human HT-1080 cells assessed as increase in ROS production at 0.2 to 0.5 uM incubated for 4 hrs by DCFH-DA dye based flow cytometry; assay type: functional, cell-based; conditions: dose 0.2-0.5 µM
MDA-MB-231 [7] = assay: Antiproliferative activity against human MDA-MB-231 cells assessed as fold increase in inhibition of cell growth incubated for 72 hrs by MTT assay relative to RSL3; assay type: functional
HT-1080 [8] = assay: HyT activity at GPX4/E3 ligase in human HT-1080 cells assessed as degradation of GPX4 protein at 0.05 uM in presence of cycloheximide by Western blotting analysis; assay type: cell-based; conditions: TDE = time-dependent effect
HT-1080 [9] = assay: HyT activity at GPX4/E3 ligase in human HT-1080 cells assessed as degradation of GPX4 protein at 0.05 uM incubated for 12 hr in presence of MG132 by Western blotting analysis; assay type: cell-based
HT-1080 [10] = assay: Induction of ferroptosis in human HT-1080 cells assessed as increase in lipid peroxidation at 0.2 to 0.5 uM incubated for 4 hrs in presence of ferrostatin-1 by C11 BODIPY 581/591 dye based flow cytometry; assay type: functional, cell-based; conditions: dose 0.2-0.5 µM
OS-RC-2 = assay: Antiproliferative activity against human OS-RC-2 cells assessed as inhibition of cell growth incubated for 72 hrs by MTT assay; assay type: functional, cell-based; conditions: OS-RC-2, 72 h
HT-1080 [11] = assay: Induction of ferroptosis in human HT-1080 cells assessed as increase in ROS production at 0.2 to 0.5 uM incubated for 4 hrs in presence of ferrostatin-1 by DCFH-DA dye based flow cytometry; assay type: functional, cell-based; conditions: dose 0.2-0.5 µM
HT-1080 [12] = assay: HyT activity at GPX4/E3 ligase in human HT-1080 cells assessed as degradation of GPX4 protein at 0.05 uM incubated for 12 hrs by Western blotting analysis relative to control; assay type: cell-based
786-0 = assay: Antiproliferative activity against human 786-0 cells assessed as inhibition of cell growth incubated for 72 hrs by MTT assay; assay type: functional, cell-based; conditions: 786-0, 72 h
HT-1080 [13] = assay: HyT activity at GPX4/E3 ligase in human HT-1080 cells assessed as degradation of GPX4 protein at 0.05 uM incubated for 12 hr in presence of chloroquine by Western blotting analysis; assay type: cell-based
[14] = HyT activity at GPX4/E3 ligase in human HT-1080 cells assessed as degradation of GPX4 protein by measuring degradation concentration incubated for 24 hrs by Western blotting analysis; assay type: cell-based; conditions: HT-1080, 24 h
HT-1080 [15] = assay: HyT activity at GPX4/E3 ligase in human HT-1080 cells assessed as degradation of GPX4 protein at 0.05 uM by Western blotting analysis; assay type: cell-based; conditions: TDE = time-dependent effect
HT-1080 [16] = assay: HyT activity at GPX4/E3 ligase in human HT-1080 cells assessed as degradation of GPX4 protein at 0.05 uM measured after 4 hrs in presence of cycloheximide by Western blotting analysis; assay type: cell-based
HT-1080 [17] = assay: HyT activity at GPX4/E3 ligase in human HT-1080 cells assessed as degradation of GPX4 protein at 0.05 uM incubated for 7 hrs by Western blotting analysis; assay type: cell-based
HT-1080 [18] = assay: HyT activity at GPX4/E3 ligase in human HT-1080 cells assessed as degradation of GPX4 protein incubated for 24 hrs by Western blotting analysis; assay type: cell-based
HT-1080 [19] = assay: HyT activity at GPX4/E3 ligase in human HT-1080 cells assessed as degradation of GPX4 protein at 0.05 uM incubated for 20 hrs by Western blotting analysis; assay type: cell-based
HT-1080 [20] = assay: HyT activity at GPX4/E3 ligase in human HT-1080 cells assessed as degradation of GPX4 protein at 0.05 uM incubated for 12 hr by Western blotting analysis; assay type: cell-based

Row | IC50 (HT-1080 [1]) [nM] | Compound | Activity (HT-1080 [2]) [%] | Activity (HT-1080 [3]) [%] | other results
1 | 41 | COC(=O)[C@H]1Cc2c([nH]c3ccccc23)[C@H](c2ccc(C(=O)N3CCN(CCCCCCCCNC(=O)CC45CC6CC(CC(C6)C4)C5)CC3)cc2)N1C(=O)CCl | 58 | 35 | –
2 | 36 | COC(=O)[C@H]1Cc2c([nH]c3ccccc23)[C@H](c2ccc(C(=O)NCCCCCCCCCCNC(=O)CC34CC5CC(CC(C5)C3)C4)cc2)N1C(=O)CCl | 72 | 35 | –
3 | 24 | COC(=O)[C@H]1Cc2c([nH]c3ccccc23)[C@H](c2ccc(C(=O)NCCCCCCCNC(=O)CC34CC5CC(CC(C5)C3)C4)cc2)N1C(=O)CCl | 78 | 47 | IC50 (MDA-MB-231 [4]): 32 nM; Activity (HT-1080 [5]): Active; Activity (HT-1080 [6]): Active; fold change (FC) (MDA-MB-231 [7]): 4; Activity (HT-1080 [8]): Tde; Activity (HT-1080 [9]): inactive; Activity (HT-1080 [10]): inactive; IC50 (OS-RC-2): 72 nM; Activity (HT-1080 [11]): inactive; Activity (HT-1080 [12]): 50%; IC50 (786-0): 46 nM; Activity (HT-1080 [13]): inactive; DC50 [14]: 19 nM; Activity (HT-1080 [15]): Tde; Activity (HT-1080 [16]): Active; Activity (HT-1080 [17]): Active; Activity (HT-1080 [18]): Dose-Dependent Effect; Activity (HT-1080 [19]): Active
4 | 120 | COC(=O)[C@H]1Cc2c([nH]c3ccccc23)[C@H](c2ccc(C(=O)NCCOCCNC(=O)CC34CC5CC(CC(C5)C3)C4)cc2)N1C(=O)CCl | – | – | –
5 | 28 | COC(=O)[C@H]1Cc2c([nH]c3ccccc23)[C@H](c2ccc(C(=O)NCCCCCCNC(=O)CC34CC5CC(CC(C5)C3)C4)cc2)N1C(=O)CCl | 59 | 44 | –
6 | 71 | COC(=O)[C@H]1Cc2c([nH]c3ccccc23)[C@H](c2ccc(C(=O)N3CCN(CCNC(=O)CC45CC6CC(CC(C6)C4)C5)CC3)cc2)N1C(=O)CCl | – | – | –
7 | 90 | COC(=O)c1ccc([C@H]2c3[nH]c4ccccc4c3C[C@H](C(=O)OC)N2C(=O)CCl)cc1 | 39 | 21 | IC50 (MDA-MB-231 [4]): 129 nM; IC50 (OS-RC-2): 82 nM; Activity (HT-1080 [20]): Active; IC50 (786-0): 47 nM
8 | 64 | COC(=O)[C@H]1Cc2c([nH]c3ccccc23)[C@H](c2ccc(C(=O)NCCOCCOCCNC(=O)CC34CC5CC(CC(C5)C3)C4)cc2)N1C(=O)CCl | – | – | –
9 | 122 | COC(=O)[C@H]1Cc2c([nH]c3ccccc23)[C@H](c2ccc(C(=O)NCCCCNC(=O)CC34CC5CC(CC(C5)C3)C4)cc2)N1C(=O)CCl | 37 | 15 | –
10 | 163 | COC(=O)[C@H]1Cc2c([nH]c3ccccc23)[C@H](c2ccc(C(=O)NCCCCCCCCNC(=O)CC34CC5CC(CC(C5)C3)C4)cc2)N1C(=O)CCl | 31 | 15 | –
11 | 30 | COC(=O)[C@H]1Cc2c([nH]c3ccccc23)[C@H](c2ccc(C(=O)N3CCN(CCCCCCNC(=O)CC45CC6CC(CC(C6)C4)C5)CC3)cc2)N1C(=O)CCl | 70 | 44 | –
12 | 498 | COC(=O)[C@H]1Cc2c([nH]c3ccccc23)[C@H](c2ccc(C(=O)NCCOCCOCCOCCNC(=O)CC34CC5CC(CC(C5)C3)C4)cc2)N1C(=O)CCl | – | – | –
13 | 200 | COC(=O)[C@H]1Cc2c([nH]c3ccccc23)[C@H](c2ccc(C(=O)N3CCN(CCCCNC(=O)CC45CC6CC(CC(C6)C4)C5)CC3)cc2)N1C(=O)CCl | – | – | –
14 | 380 | COC(=O)[C@H]1Cc2c([nH]c3ccccc23)[C@H](c2ccc(C(=O)NCCCCCCCNC(C)=O)cc2)N1C(=O)CCl | 6 | 5 | –
15 | 64 | COC(=O)[C@H]1Cc2c([nH]c3ccccc23)[C@H](c2ccc(C(=O)NCCCCCNC(=O)CC34CC5CC(CC(C5)C3)C4)cc2)N1C(=O)CCl | 38 | 20 | –
16 | 58 | COC(=O)[C@H]1Cc2c([nH]c3ccccc23)[C@H](c2ccc(C(=O)NCCNC(=O)CC34CC5CC(CC(C5)C3)C4)cc2)N1C(=O)CCl | 52 | 33 | –
